Laboratory results published in patent publication US7074789B2, “Kinase inhibitors” (Amgen Inc., priority 1999, dated 2006).

Experiments:
Format in all cases: biochemical
Ret-1 = target: T1, Ret-1 (Homo sapiens, UniProt P07949); assay: Kinase inhibition assay (33P transfer), Ret; conditions: Table 6, Ret-1 kinase inhibition class
T1 construct: Kinases are expressed as either kinase domains or full length constructs; made in house

Fyn = target: T2, Fyn (Homo sapiens, UniProt P06241); assay: Kinase inhibition assay (33P transfer), Fyn; conditions: read-out: Fyn-1
T2 construct: Kinases are expressed as either kinase domains or full length constructs; made in house
Procedure, shortened: (§1)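 Using immobilised substrate copolymers (poly(Glu,Tyr) 4:1; poly(Arg,Ser) 3:1) and [33P]ATP, purified fusion kinases were allowed to react; plates were then rinsed in 0.5% phosphoric acid and counted in a scintillation detector. Half-maximal inhibition of label transfer defines IC50.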

EGFR = target: T3, EGFR (Homo sapiens, UniProt P00533); assay: Kinase inhibition assay (33P transfer), EGFR; conditions: Table 2, kinase inhibition class; read-out: EGFR-1
T3 construct: Kinases are expressed as either kinase domains or full length constructs; made in house
Procedure, shortened: as §1

Src = target: T4, Src (Homo sapiens, UniProt P12931); assay: Kinase inhibition assay (33P transfer), Src; conditions: Table 6, Src-1 kinase inhibition class
T4 construct: Kinases are expressed as either kinase domains or full length constructs; made in house
Procedure, shortened: as §1

AKT = target: T5, AKT (Homo sapiens, UniProt Q9Y243); assay: Kinase inhibition assay (33P transfer), AKT; conditions: Table 2, kinase inhibition class; read-out: AKT3-1
T5 construct: Kinases are expressed as either kinase domains or full length constructs; made in house
Procedure, shortened: (§2)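 Recombinant kinase-domain or full-length fusion proteins (GST or His tag) served as enzyme. Substrate poly(Glu,Tyr) 4:1 or poly(Arg,Ser) 3:1 was bound to the plate; transferred 33P was read by liquid scintillation following acid washing.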

Hck-1 = target: T6, Hck-1 (Homo sapiens, UniProt P08631); assay: Kinase inhibition assay (33P transfer), Hck; conditions: Table 6, Hck-1 kinase inhibition class
T6 construct: Kinases are expressed as either kinase domains or full length constructs; made in house

Lck = target: T7, Lck (Homo sapiens, UniProt P06239); assay: Kinase inhibition assay (33P transfer), Lck; conditions: Table 3; read-out: Lck-1
T7 construct: Kinases are expressed as either kinase domains or full length constructs; made in house
Procedure, shortened: as §2

Kdr = target: T8, Kdr (Homo sapiens, UniProt P35968); assay: Kinase inhibition assay (33P transfer), Kdr; conditions: Table 3; read-out: KDR-1
T8 construct: Kinases are expressed as either kinase domains or full length constructs; made in house
Procedure, shortened: as §2

Lyn = target: T9, Lyn (Homo sapiens, UniProt P07948); assay: Kinase inhibition assay (33P transfer), Lyn; conditions: Table 6, Lyn-1 kinase inhibition class
T9 construct: Kinases are expressed as either kinase domains or full length constructs; made in house
Procedure, shortened: as §1

ErbB2 = target: T10, ErbB2 (Homo sapiens, UniProt P04626); assay: Kinase inhibition assay (33P transfer), ErbB2; conditions: read-out: ErbB2-2
T10 construct: Kinases are expressed as either kinase domains or full length constructs; made in house
Procedure, shortened: as §1

Zap-70 = target: T11, Zap-70 (Homo sapiens, UniProt P43403); assay: Kinase inhibition assay (33P transfer), Zap-70; conditions: Table 3; read-out: Zap-1
T11 construct: Kinases are expressed as either kinase domains or full length constructs; made in house
T11 sequence (P43403 1-619): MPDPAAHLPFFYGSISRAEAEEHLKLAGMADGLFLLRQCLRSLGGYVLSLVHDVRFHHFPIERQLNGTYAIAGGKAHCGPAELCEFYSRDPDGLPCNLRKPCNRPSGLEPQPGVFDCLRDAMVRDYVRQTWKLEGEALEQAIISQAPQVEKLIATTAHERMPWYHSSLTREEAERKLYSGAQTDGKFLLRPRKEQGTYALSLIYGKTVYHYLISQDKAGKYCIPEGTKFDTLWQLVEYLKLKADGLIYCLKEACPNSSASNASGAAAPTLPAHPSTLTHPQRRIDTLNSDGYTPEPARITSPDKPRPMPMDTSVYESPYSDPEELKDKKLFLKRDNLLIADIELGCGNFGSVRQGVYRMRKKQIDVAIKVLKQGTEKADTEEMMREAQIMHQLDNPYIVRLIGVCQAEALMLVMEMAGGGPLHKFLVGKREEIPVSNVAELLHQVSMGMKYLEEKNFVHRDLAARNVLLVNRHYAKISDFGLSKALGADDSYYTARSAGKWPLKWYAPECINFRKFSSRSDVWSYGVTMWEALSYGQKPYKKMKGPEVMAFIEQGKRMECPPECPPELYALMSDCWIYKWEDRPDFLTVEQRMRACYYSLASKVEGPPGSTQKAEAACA
Procedure, shortened: as §2

T10 sequence (P04626 23-1255, species assumed): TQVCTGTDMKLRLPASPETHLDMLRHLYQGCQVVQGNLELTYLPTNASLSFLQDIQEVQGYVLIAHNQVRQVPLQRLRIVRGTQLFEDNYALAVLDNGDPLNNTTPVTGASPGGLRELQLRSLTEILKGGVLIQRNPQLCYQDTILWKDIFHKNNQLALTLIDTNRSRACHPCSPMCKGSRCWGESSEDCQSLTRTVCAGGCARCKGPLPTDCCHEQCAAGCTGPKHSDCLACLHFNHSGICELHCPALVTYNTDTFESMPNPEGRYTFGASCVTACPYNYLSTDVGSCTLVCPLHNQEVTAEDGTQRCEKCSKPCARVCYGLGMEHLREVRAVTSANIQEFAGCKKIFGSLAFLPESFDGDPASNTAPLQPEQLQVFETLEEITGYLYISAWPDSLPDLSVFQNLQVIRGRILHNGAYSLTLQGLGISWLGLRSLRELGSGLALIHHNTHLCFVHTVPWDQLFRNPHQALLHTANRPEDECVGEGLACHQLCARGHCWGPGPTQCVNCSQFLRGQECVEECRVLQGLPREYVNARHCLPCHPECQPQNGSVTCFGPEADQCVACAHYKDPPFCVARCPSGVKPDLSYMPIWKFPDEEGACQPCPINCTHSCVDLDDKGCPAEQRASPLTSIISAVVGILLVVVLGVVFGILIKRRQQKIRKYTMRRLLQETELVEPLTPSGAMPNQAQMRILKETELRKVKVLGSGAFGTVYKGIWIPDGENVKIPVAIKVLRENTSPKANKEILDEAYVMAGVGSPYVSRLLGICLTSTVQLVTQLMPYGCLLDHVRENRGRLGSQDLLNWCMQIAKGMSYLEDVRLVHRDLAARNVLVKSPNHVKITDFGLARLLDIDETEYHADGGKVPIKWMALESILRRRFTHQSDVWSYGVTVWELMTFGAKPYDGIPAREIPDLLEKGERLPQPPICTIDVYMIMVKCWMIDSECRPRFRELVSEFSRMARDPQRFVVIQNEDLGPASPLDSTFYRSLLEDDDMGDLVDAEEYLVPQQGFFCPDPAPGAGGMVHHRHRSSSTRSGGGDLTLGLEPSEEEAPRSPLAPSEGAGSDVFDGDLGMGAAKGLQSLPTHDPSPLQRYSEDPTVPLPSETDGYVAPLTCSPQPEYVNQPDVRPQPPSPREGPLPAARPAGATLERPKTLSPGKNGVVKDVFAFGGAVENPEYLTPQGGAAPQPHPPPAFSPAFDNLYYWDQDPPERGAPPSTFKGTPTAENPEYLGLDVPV
T1 sequence (P07949 29-1114): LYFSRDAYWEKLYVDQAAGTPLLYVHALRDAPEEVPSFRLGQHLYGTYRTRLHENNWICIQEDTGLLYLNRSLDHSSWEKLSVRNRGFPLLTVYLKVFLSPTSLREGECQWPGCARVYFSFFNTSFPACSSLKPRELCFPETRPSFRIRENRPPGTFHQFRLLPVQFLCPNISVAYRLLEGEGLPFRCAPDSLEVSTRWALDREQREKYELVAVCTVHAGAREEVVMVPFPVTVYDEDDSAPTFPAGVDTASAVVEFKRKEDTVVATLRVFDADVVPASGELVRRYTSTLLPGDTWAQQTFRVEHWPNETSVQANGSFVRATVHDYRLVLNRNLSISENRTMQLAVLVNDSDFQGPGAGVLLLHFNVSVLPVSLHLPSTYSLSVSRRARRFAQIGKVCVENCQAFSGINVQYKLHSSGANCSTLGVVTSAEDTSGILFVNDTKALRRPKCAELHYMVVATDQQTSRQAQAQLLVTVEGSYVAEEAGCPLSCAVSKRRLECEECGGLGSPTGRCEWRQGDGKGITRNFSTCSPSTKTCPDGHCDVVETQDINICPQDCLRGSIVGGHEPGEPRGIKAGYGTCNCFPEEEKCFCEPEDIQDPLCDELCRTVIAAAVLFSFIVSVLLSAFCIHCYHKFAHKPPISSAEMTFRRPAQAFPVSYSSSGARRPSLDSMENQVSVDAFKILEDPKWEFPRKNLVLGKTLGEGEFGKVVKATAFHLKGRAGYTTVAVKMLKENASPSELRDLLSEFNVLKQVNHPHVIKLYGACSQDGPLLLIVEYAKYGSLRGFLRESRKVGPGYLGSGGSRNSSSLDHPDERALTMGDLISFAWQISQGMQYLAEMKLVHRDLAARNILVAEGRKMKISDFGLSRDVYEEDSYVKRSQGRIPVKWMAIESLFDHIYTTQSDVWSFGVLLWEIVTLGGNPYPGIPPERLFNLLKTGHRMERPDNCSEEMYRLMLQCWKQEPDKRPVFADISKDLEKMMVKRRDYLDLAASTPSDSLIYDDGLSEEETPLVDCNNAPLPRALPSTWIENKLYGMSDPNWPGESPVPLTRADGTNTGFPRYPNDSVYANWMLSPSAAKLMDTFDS
T9 sequence (P07948 whole entry, species assumed, the tested form may be a part): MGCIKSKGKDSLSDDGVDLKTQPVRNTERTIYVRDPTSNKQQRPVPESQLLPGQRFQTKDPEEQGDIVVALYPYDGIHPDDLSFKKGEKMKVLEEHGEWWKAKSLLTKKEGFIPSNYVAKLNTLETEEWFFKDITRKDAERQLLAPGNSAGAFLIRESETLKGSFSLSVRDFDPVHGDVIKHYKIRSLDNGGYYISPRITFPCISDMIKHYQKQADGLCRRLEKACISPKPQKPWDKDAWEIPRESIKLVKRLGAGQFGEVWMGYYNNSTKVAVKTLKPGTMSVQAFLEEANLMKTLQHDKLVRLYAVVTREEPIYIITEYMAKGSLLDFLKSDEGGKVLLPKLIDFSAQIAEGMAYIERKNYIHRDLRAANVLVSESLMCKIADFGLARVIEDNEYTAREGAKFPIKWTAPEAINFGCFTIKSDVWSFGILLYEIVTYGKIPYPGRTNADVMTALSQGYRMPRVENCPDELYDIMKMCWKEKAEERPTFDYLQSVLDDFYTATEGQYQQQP
T4 sequence (P12931 whole entry, species assumed, the tested form may be a part): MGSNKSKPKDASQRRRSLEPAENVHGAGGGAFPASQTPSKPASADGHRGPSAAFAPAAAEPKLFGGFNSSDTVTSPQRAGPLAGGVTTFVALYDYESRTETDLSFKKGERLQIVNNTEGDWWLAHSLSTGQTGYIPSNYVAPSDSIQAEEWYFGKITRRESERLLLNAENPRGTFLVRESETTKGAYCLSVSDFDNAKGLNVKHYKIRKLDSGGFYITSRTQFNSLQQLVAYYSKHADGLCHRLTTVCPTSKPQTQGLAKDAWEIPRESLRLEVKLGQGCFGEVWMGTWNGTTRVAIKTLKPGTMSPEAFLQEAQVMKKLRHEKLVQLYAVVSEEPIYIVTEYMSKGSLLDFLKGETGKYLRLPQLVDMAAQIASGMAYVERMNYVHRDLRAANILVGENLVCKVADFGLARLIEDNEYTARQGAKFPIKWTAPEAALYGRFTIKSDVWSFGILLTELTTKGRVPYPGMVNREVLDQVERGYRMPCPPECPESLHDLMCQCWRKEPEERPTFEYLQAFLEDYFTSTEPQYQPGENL
T8 sequence (P35968 20-1356, species assumed): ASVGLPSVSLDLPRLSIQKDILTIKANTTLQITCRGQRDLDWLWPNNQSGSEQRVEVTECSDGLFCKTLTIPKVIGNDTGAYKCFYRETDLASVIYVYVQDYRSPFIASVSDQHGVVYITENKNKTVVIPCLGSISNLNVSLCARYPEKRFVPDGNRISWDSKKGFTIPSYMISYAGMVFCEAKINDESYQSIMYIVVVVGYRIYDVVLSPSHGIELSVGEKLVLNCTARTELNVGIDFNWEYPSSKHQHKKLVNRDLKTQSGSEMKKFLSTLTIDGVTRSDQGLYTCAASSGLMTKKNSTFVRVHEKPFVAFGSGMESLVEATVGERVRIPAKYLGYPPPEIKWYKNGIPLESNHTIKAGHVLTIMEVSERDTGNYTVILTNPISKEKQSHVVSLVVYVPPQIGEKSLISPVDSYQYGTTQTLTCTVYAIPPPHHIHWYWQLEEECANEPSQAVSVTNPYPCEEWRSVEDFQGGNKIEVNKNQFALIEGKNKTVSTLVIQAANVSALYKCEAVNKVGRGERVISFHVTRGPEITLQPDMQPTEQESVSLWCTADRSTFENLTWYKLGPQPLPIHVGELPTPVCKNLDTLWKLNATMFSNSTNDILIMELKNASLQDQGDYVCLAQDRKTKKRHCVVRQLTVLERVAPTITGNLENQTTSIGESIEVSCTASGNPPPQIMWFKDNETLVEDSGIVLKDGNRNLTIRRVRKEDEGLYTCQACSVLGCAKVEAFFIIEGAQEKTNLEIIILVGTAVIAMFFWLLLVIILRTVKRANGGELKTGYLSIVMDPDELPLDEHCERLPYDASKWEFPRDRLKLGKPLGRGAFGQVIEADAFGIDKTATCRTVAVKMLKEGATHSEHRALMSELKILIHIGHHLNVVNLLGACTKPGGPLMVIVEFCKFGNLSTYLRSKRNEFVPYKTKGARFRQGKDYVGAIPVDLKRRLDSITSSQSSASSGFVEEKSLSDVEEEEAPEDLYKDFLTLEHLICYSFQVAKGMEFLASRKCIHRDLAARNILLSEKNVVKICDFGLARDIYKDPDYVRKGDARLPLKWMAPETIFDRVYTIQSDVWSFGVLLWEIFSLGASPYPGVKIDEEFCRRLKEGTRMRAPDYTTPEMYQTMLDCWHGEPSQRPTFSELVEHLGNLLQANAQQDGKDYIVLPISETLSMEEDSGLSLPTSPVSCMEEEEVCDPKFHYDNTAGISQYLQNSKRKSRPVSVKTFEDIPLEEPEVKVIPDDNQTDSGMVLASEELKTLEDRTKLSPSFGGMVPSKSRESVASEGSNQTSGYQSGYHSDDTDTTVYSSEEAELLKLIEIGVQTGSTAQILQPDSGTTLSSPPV

IC50 (Ret-1)	IC50 (Fyn)	IC50 (EGFR)	IC50 (Src)	IC50 (AKT)	IC50 (Hck-1)	IC50 (Lck)	IC50 (Kdr)	IC50 (Lyn)	IC50 (ErbB2)	IC50 (Zap-70)	Compound
6.6 to 9.63 µM	> 12.4 µM	> 12.4 µM	> 12.4 µM	> 12.4 µM	> 12.4 µM	1.1 to 6.6 µM	< 1.1 µM	> 12.4 µM	> 12.4 µM	> 12.4 µM	COc1ccc(Nc2ncnc(-n3c(N)nc4ccccc43)n2)cc1OC [Compound 285]
1.03 to 6.19 µM	< 1.03 µM	< 1.03 µM	< 1.03 µM	> 11.6 µM	> 11.6 µM	1.03 to 6.19 µM	< 1.03 µM	< 1.03 µM	< 1.03 µM	9.02 to 11.6 µM	COc1cc(Nc2ncnc(Nc3cccc(Cl)c3)n2)cc(OC)c1OC [Compound 135]
> 11.9 µM	> 11.9 µM	> 11.9 µM	> 11.9 µM	> 11.9 µM	> 11.9 µM	6.36 to 9.27 µM	< 1.06 µM	> 11.9 µM	> 11.9 µM	> 11.9 µM	COc1cc(Nc2ncnc(-n3ccc4ccccc43)n2)cc(OC)c1OC [Compound 185]
< 1.26 µM	1.26 to 7.56 µM	< 1.26 µM	1.26 to 7.56 µM	7.56 to 11 µM	1.26 to 7.56 µM	11 to 14.2 µM	1.26 to 7.56 µM	< 1.26 µM	1.26 to 7.56 µM	11 to 14.2 µM	Cc1cccc(Nc2ncnc(Nc3ccc4[nH]ncc4c3)n2)c1 [Compound 120]
1.09 to 6.53 µM	< 1.09 µM	< 1.09 µM	< 1.09 µM	> 12.2 µM	6.53 to 9.53 µM	1.09 to 6.53 µM	< 1.09 µM	< 1.09 µM	1.09 to 6.53 µM	> 12.2 µM	COc1cc(Nc2ncnc(Nc3ccc(C)cc3)n2)cc(OC)c1OC [Compound 930]
< 1.08 µM	< 1.08 µM	< 1.08 µM	< 1.08 µM	> 12.1 µM	6.46 to 9.42 µM	< 1.08 µM	< 1.08 µM	< 1.08 µM	1.08 to 6.46 µM	> 12.1 µM	COc1cc(Nc2ncnc(Nc3cccc(F)c3)n2)cc(OC)c1OC [Compound 304]
< 1 µM	< 1 µM	< 1 µM	< 1 µM	> 11.3 µM	1 to 6.01 µM	1 to 6.01 µM	< 1 µM	< 1 µM	1 to 6.01 µM	> 11.3 µM	COc1ccc(Nc2ncnc(Nc3cc(OC)c(OC)c(OC)c3)n2)cc1O [Compound 931]
1.26 to 7.59 µM	< 1.26 µM	< 1.26 µM	< 1.26 µM	> 14.2 µM	7.59 to 11.1 µM	1.26 to 7.59 µM	< 1.26 µM	< 1.26 µM	< 1.26 µM	> 14.2 µM	Cc1cccc(Nc2ncnc(Nc3ccc4[nH]ccc4c3)n2)c1 [Compound 110]
> 11.3 µM	1.01 to 6.04 µM	1.01 to 6.04 µM	6.04 to 8.81 µM	> 11.3 µM	> 11.3 µM	6.04 to 8.81 µM	1.01 to 6.04 µM	> 11.3 µM	1.01 to 6.04 µM	> 11.3 µM	COc1cc(Nc2ncnc(Nc3ccc(C(=O)O)cc3)n2)cc(OC)c1OC [Compound 104]
4.97 to 7.25 µM	0.829 to 4.97 µM	< 0.829 µM	0.829 to 4.97 µM	7.25 to 9.33 µM	> 9.33 µM	0.829 to 4.97 µM	0.829 to 4.97 µM	< 0.829 µM	< 0.829 µM	0.829 to 4.97 µM	COc1cc(Nc2ncnc(Nc3ccc4c(ccn4Cc4ccccc4)c3)n2)cc(OC)c1OC [Compound 178]
0.888 to 5.33 µM	> 9.99 µM	< 0.888 µM	0.888 to 5.33 µM	> 9.99 µM	> 9.99 µM	7.77 to 9.99 µM	< 0.888 µM	< 0.888 µM	0.888 to 5.33 µM	> 9.99 µM	COCCOc1ccc(Nc2ncnc(Nc3ccc4[nH]ccc4c3)n2)cc1OCCOC [Compound 321]
